Among the data in ChEMBL document CHEMBL4613255, “Tridiscorhabdin and Didiscorhabdin, the First Discorhabdin Oligomers Linked with a Direct C-N Bridge from the Sponge Latrunculia biformis Collected from the Deep Sea in Antarctica” (J Nat Prod, 2020) are IC50 values, retold here.

One assay has as its system HCT-116. Kind of assay: Cytotoxicity against human HCT116 cells assessed as reduction in cell viability after 24 hrs by fluorescence based assay. It is filed as functional. The following applies: HCT-116, 24 h.
The next assay has as its system HaCaT. Kind of assay: Cytotoxicity against human HaCaT cells assessed as reduction in cell viability after 24 hrs by fluorescence based assay.

For orientation: IC50 means the midpoint of a concentration-inhibition curve. Regarding `O=C1C2=C3C4=[N+](CCc5c[nH]c1c54)[C@@H]1C(=O)C=C4S[C@H](C[C@]43[C@H]1O)N2`, in the assay with HCT-116, the IC50 was 940 nM. As to `O=C1C=C(S[C@@H]2[C@H]3C(=O)C=C4S[C@H]5C[C@@]42C2=C(N5)C(=O)c4[nH]cc5c4C2=[N+]3CC5)[C@@]2(C=CNC3=C2c2nccc4cn([C@H]5[C@H]6C(=O)C=C7S[C@H]8C[C@]75C5=C(N8)C(=O)c7[nH]cc8c7C5=[N+]6CC8)c(c24)C3=O)C=C1Br`, the values for the half-inhibitory concentration (IC50) in the assay with HaCaT and in the assay on HCT-116 were 920 nM and 310 nM, respectively.
